Results published in the NIST ThermoML archive (doi:10.1016/j.jct.2005.03.015).
Numbers after ± are expanded uncertainties.

Experiment: mn = molality of the nth substance listed, in mol/kg
Settings: 298.15 K, 101 kPa, Liquid

## NCC(=O)O [2-aminoacetic acid] + O
m1 = 0.0988
  mass density: 1000.19 ± 0.48 kg/m3
m1 = 0.1509
  mass density: 1001.82 ± 0.49 kg/m3
m1 = 0.2033
  mass density: 1003.44 ± 0.49 kg/m3
m1 = 0.2463
  mass density: 1004.78 ± 0.49 kg/m3
m1 = 0.2996
  mass density: 1006.4 ± 0.5 kg/m3
m1 = 0.3513
  mass density: 1007.96 ± 0.5 kg/m3
m1 = 0.4037
  mass density: 1009.55 ± 0.51 kg/m3
m1 = 0.4497
  mass density: 1010.94 ± 0.51 kg/m3

## NC(CO)C(=O)O (stereo not drawn) [(.+-.)-serine] + O
m1 = 0.02628
  mass density: 998.22 ± 0.49 kg/m3
m1 = 0.04948
  mass density: 999.26 ± 0.48 kg/m3
m1 = 0.07419
  mass density: 1000.35 ± 0.48 kg/m3
m1 = 0.1008
  mass density: 1001.52 ± 0.49 kg/m3
m1 = 0.1252
  mass density: 1002.6 ± 0.49 kg/m3
m1 = 0.1509
  mass density: 1003.72 ± 0.49 kg/m3
m1 = 0.1753
  mass density: 1004.76 ± 0.5 kg/m3
m1 = 0.2009
  mass density: 1005.86 ± 0.5 kg/m3

## C[C@H](N)C(=O)O [(S)-2-aminopropanoic acid] + O
m1 = 0.1065
  mass density: 1000.07 ± 0.48 kg/m3
m1 = 0.1518
  mass density: 1001.34 ± 0.48 kg/m3
m1 = 0.2006
  mass density: 1002.71 ± 0.49 kg/m3
m1 = 0.2568
  mass density: 1004.27 ± 0.49 kg/m3
m1 = 0.3059
  mass density: 1005.52 ± 0.5 kg/m3
m1 = 0.359
  mass density: 1007.03 ± 0.5 kg/m3
m1 = 0.4066
  mass density: 1008.35 ± 0.5 kg/m3
m1 = 0.4555
  mass density: 1009.54 ± 0.51 kg/m3

## C[C@@H](O)[C@H](N)C(=O)O [DL-threonine] + O
m1 = 0.0246
  mass density: 998.08 ± 0.49 kg/m3
m1 = 0.0494
  mass density: 999.12 ± 0.48 kg/m3
m1 = 0.07575
  mass density: 1000.22 ± 0.48 kg/m3
m1 = 0.1002
  mass density: 1001.23 ± 0.48 kg/m3
m1 = 0.1256
  mass density: 1002.28 ± 0.49 kg/m3
m1 = 0.1499
  mass density: 1003.28 ± 0.49 kg/m3
m1 = 0.1751
  mass density: 1004.31 ± 0.49 kg/m3
m1 = 0.2001
  mass density: 1005.33 ± 0.5 kg/m3

## N[C@@H](Cc1c[nH]cn1)C(=O)O [L-histidine] + O
m1 = 0.02223
  mass density: 998.29 ± 0.49 kg/m3
m1 = 0.04995
  mass density: 999.84 ± 0.48 kg/m3
m1 = 0.07431
  mass density: 1001.19 ± 0.49 kg/m3
m1 = 0.099
  mass density: 1002.56 ± 0.49 kg/m3
m1 = 0.1232
  mass density: 1003.87 ± 0.49 kg/m3
m1 = 0.1428
  mass density: 1004.92 ± 0.5 kg/m3
m1 = 0.1834
  mass density: 1007.13 ± 0.5 kg/m3
m1 = 0.2013
  mass density: 1008.08 ± 0.51 kg/m3

## NCC(=O)NCC(=O)O [glycylglycine] + O
m1 = 0.02426
  mass density: 998.39 ± 0.49 kg/m3
m1 = 0.05026
  mass density: 999.84 ± 0.48 kg/m3
m1 = 0.07538
  mass density: 1001.22 ± 0.49 kg/m3
m1 = 0.0999
  mass density: 1002.54 ± 0.49 kg/m3
m1 = 0.1253
  mass density: 1003.95 ± 0.49 kg/m3
m1 = 0.1482
  mass density: 1005.2 ± 0.5 kg/m3
m1 = 0.1746
  mass density: 1006.63 ± 0.5 kg/m3
m1 = 0.1974
  mass density: 1007.84 ± 0.51 kg/m3
